Results on 1 compound are retold here after patent US7318939B2 (Vita Green Health Products Co., Ltd., priority 2006, dated 2008).

Where “and” joins values, the source holds several entries; their conditions need not be identical. Equal values may be shown once. Where a name gives a salt, the structure may show the parent alone.

The assay deals with male CD1 mice. The assay can be described thus: Anti-depressant activity: forced swimming test in mice. It counts as in vivo. The following applies: 30 mg/kg ip. The source says:
A depressed state can be induced in mice by forcing them to swim in a narrow cylinder from which they cannot escape. After an initial period of vigorous activity, the mice adopt a characteristic immobile posture which is readily identifiable.
Fifty-five male CD1 mice weighing 20-25 g at the start of the study were obtained from Charles River Laboratories Espafia (Barcelona, Spain). These mice underwent a prior acclimatization period of 6 days before the start of the experimental work, during which they underwent a veterinary examination in order to assure their good health.
The mice were allotted at random to five groups, each consisting of ten animals. The rest of the animals (one per group) were kept as reserve (these animals are not taken into account in the final results). The experimental design is described in the Table 7 below.
The mice began a fasting period of approximately 6 hours before starting the treatments. At the beginning of the test, the corresponding treatments were administrated by the assigned route at a volume of 10 mL/kg. The test item was administrated at three dose levels of 100, 200 and 300 mg/kg by oral route (gastric gavage or po). The reference item was administrated at the dose level of 30 mg/kg by intraperitoneal route or ip. The Control group only received the vehicle (water for injection) orally (po) by gastric gavage.
Six minutes after the administration of the treatments, each mouse was dropped into the cylinder containing water (forcing it to swim) and left there for 6 minutes, the testing time. The time of immobility of the animal was recorded. A mouse was considered immobile when it ceased struggling and remained floating motionless in the water making only those movements necessary to keep its head above water. […] Finally, once the test was over, the animals were sacrificed by cervical dislocation.

As to `CN(C)CCCN1c2ccccc2CCc2ccccc21` [Imipramine HCl, Imipramine hydrochloride], the “% decrease versus Control (time of immobility)” value was determined as 56.2%. Besides, where the note is “animal no. 1-10, hydrochloride”, the “Time of immobility (s) individual values” is 90 s and 140 s and 64 s and 51 s and 3 s and 91 s and 37 s. In addition, for the setting “last 4 min of 6 min test, Mean ± SEM, n = 10, hydrochloride”, the “Time of immobility (s), mean” value is 80.8 ± 13.14 s and 80.8 s.
